Test results reported in patent publication US20040214799A1, “Cancerous metastasis inhibitors containing carbacyclic phosphatidic acid derivatives” (priority 2001, published 2004).

Assays:
[1] = General state and body weight of B16-F0 melanoma-bearing mice; assay type: in vivo; conditions: for Body weight (g) day 0: day 0, mean ± S.D.; for Body weight (g) day 0 / Body weight (g) day 4 / Body weight (g) day 7 / Body weight (g) day 11 / Body weight (g) day 14: N 6; for Body weight (g) day 4: day 4, mean ± S.D.; for Body weight (g) day 7: day 7, mean ± S.D.; for Body weight (g) day 11: day 11, mean ± S.D.; for Body weight (g) day 14: day 14, mean ± S.D.; for body weight compared with the medium group at each measurement (in words): days 0, 4, 7, 11, 14; for effect on changes in body weight (in words): 0.001-0.008 mg/body i.v., days 0 to 14
Method: The mixture was administered via the caudal vein. The number of grafted cells was 5×10^5 cells/body. The dose of the test substance was 0.001, 0.004 or 0.008 mg/body, and the dose of the positive control substance was 0.008 mg/body.
Observation period ranged from days 0 to 14 after the administration of the test substance. Life and death were confirmed every day during this period, and the general state was observed. Body weight measurement was performed twice a week.
The representative value of each test group was denoted as mean±standard deviation (mean±S.D.). Differences in mean values were examined as follows. The number of metastatic nodules was examined by Dunnett's multiple comparison test between the medium group and the cPA-19 group, and between the medium group and the cPA-20 group. The same was examined by the Student's T-test between the medium group and cPA-5 group. The number of metastatic lesions was examined by the Wilcoxon test using the medium group as a control. The number of animals having metastatic nodules or metastatic lesions was examined by Fisher's extract probability test using the medium group as a control. The significance levels were 1% and 5%.

MM1 cells [2] = assay: In vitro invasion assay, LPA-induced invasion of MM1 cells across mesothelial cell monolayer; assay type: cell-based, rat; conditions: 25 μM LPA; for invasion suppressing activity on LPA-induced invasion, carba-cPA at low concentration (in words): 0.5 μM, 1 μM or 10 μM carba-cPA
Method: The abdomen of a male DONRYU rat (300 g, NIPPON BIO-SUPP. CENTER) was opened aseptically. The thus obtained mesenterium was treated with 0.25% trypsin at 37° C. for 15 minutes, filtrated with a 150 μm stainless mesh, and then centrifuged to collect mesothelial cells. The cells were cultured under conditions of 37° C. and 5% CO2 in a medium which was obtained by adding 10% FBS to Eagle's MEMI (Nissui) supplemented with Eagle's MEM amino acid vitamin medium (Nissui) in a volume twice as great as that of the MEMI. A mesothelial cell monolayer which had reached a confluent density after 1 week of culturing was used for invasion assay.
The MM1 cells, which are highly invasive clones of rat ascites hepatoma cells (AH-130), were established by Mukai et al., (Int. J. Cancer : 81, 918-922 (1999)), and was cultured under the same conditions as those for mesothelial cells.
In vitro invasion assay was developed by Akedo et al (Akedo, H et al., Cancer Res. 46, 2416-2422 (1986)). MM1 cells were multi-layer-cultured on the mesothelial cell layer, which had been grown to reach a confluent density, in the presence of 10% FBS or 25 μM LPA (SIGMA). 25 μM cPA was then added. The cells were cultured under conditions of 37° C. and 5% CO2 for 20 hours, and then fixed with 10% formalin. The number of colonies of MM1 cells that had invaded was counted under a phase-contrast microscope (FIG. 3).
cPA and LPA were ice-cooled in PBS containing 0.1% fatty-acid free BSA (SIGMA), ultrasonicated, emulsified, stored at −20° C., and then used.
0.5 μM, 1 μM and 10 μM carba-cPA were added to MM1 cells, and then in vitro invasion assay was performed similarly to (1-1) in the presence of 25 μM LPA.
The following reagents were respectively added to an in vitro invasion assay system so as to examine their effects on MM1 cell invasion in the presence of 25 μM LPA: Forskolin (Wako) which directly activates adenylate cyclase (cAMP synthase); cholera toxin (CTX) (GIBCO BRL) which prevent the deactivation of G protein (Gs) which activates adenylate cyclase; Bt2cAMP (nacalai tesque) which can pass through the membrane and functions in a manner similar to that of cAMP when it enters the cell; or isobutylmethylxanthine (IBMX, 3-isobutyl-1-methylxanthine) (SIGMA) which inhibits phosphodiesterase (cAMP degrading enzyme).

MM1 cells [3] = assay: Effect on the proliferation of MM1 cells; assay type: cell-based, rat; conditions: 12.5 μM or 25 μM cPA, 10% FBS, 24 hours and 72 hours
Method: 12.5 μM and 25 μM cPA were added to media containing 10% FBS, and then the cells were cultured under conditions of 37° C. and 5% CO2 for 24 hours and 72 hours. The number of the MM1 cells was counted using a hemocytometer.

Row | Compound | Body weight (g) day 0 ([1]; 0.008 mg/body i.v.) | Body weight (g) day 4 ([1]; 0.008 mg/body i.v.) | Body weight (g) day 7 ([1]; 0.008 mg/body i.v.) | Body weight (g) day 11 ([1]; 0.008 mg/body i.v.) | Body weight (g) day 14 ([1]; 0.008 mg/body i.v.) | body weight compared with the medium group at each measurement (in words) [1] | suppression of LPA-induced invasion (in words) (MM1 cells [2]; 25 μM cPA derivative, 20 hours) | effect on MM1 cell proliferation (in words) (MM1 cells [3]) | Body weight (g) day 0 ([1]; 0.001 mg/body i.v.) | Body weight (g) day 4 ([1]; 0.001 mg/body i.v.) | Body weight (g) day 7 ([1]; 0.001 mg/body i.v.) | Body weight (g) day 11 ([1]; 0.001 mg/body i.v.) | Body weight (g) day 14 ([1]; 0.001 mg/body i.v.) | Body weight (g) day 0 ([1]; 0.004 mg/body i.v.) | Body weight (g) day 4 ([1]; 0.004 mg/body i.v.) | Body weight (g) day 7 ([1]; 0.004 mg/body i.v.) | Body weight (g) day 11 ([1]; 0.004 mg/body i.v.) | Body weight (g) day 14 ([1]; 0.004 mg/body i.v.) | effect on changes in body weight (in words) [1] | invasion suppressing activity on LPA-induced invasion, carba-cPA at low concentration (in words) (MM1 cells [2])
1 | CCCCCCCCCCCCCCCC(=O)OC[C@@H]1COP(=O)(O)O1 [cPA-5, Pal-cPA, reference compound] | 15.9 ± 0.6 g | 15.8 ± 0.9 g | 16.2 ± 1.0 g | 17.0 ± 0.8 g | 17.4 ± 1.0 g | no significant difference | suppressed | no effect on MM1 cell proliferation | – | – | – | – | – | – | – | – | – | – | – | –
2 | carba-ΔPal-cPA [cPA-20] | 15.9 ± 0.5 g | 16.1 ± 0.8 g | 16.3 ± 0.8 g | 17.0 ± 0.9 g | 17.7 ± 0.8 g | no significant difference | – | showed proliferation suppressing activity | 15.9 ± 0.6 g | 15.5 ± 0.3 g | 16.1 ± 0.6 g | 16.8 ± 0.4 g | 17.4 ± 0.6 g | 16.0 ± 0.6 g | 16.0 ± 0.7 g | 16.2 ± 0.6 g | 16.9 ± 0.7 g | 17.5 ± 0.8 g | no effect on changes in body weight | stronger invasion suppressing activity than cPA-18
3 | carba-Ole-cPA [cPA-19] | 15.9 ± 0.6 g | 15.4 ± 0.5 g | 15.9 ± 0.5 g | 16.8 ± 0.5 g | 17.0 ± 0.4 g | no significant difference | – | showed proliferation suppressing activity | 15.9 ± 0.6 g | 15.5 ± 0.5 g | 15.8 ± 0.7 g | 16.5 ± 1.0 g | 17.1 ± 1.2 g | 15.9 ± 0.6 g | 16.0 ± 0.5 g | 16.1 ± 0.6 g | 16.7 ± 0.6 g | 17.6 ± 0.9 g | no effect on changes in body weight | stronger invasion suppressing activity than cPA-18
